Like-named read-outs stand apart in the source and are kept apart here. Values belong to the compound of their own block, whether it stands above or below them.
Experiments:
[1] = Curcuminoids in murine tumor, brain and liver after PHRAD 129; conditions: for signal in murine tumor extract: oral PHRAD 129, 100 mg/kg daily
Procedure: Murine soft tissues. Mouse liver, brain, and tumor samples were collected from animals that had been administered a proprietary turmeric formulation (PHRAD 129, Aveta Biomics, Bedford, Mass.). After dissection, the tissues were weighed, frozen and stored at −80° C.
The samples were homogenized in a bead mill (thrice for 10 seconds each time at RT). The homogenate was vigorously mixed (5 min, RT), centrifuged (16,000 g, 5 min at RT), and the supernatant was transferred to microcentrifuge tubes and dried in a vacuum centrifuge. The dried samples were tightly capped and stored at −80° C.

[2] = in vivo
Procedure: (§1) Biological samples: Human plasma. […] The tubes were centrifuged (1000 g, 15 min), and plasma was collected and stored at −80° C.
(§2) Extraction of human plasma samples and BF2 complex formation: Plasma samples were prepared in duplicate by transferring aliquots of human plasma (100 uL) to 1.5 mL microcentrifuge tubes. The internal standards (1 pmol d6C and 5 pmol d6TC in 10 uL of methanol) were added to each sample. They were briefly vortexed, then treated with cold 10 mM acetic acid in methanol (1 mL). After rigorous mixing, incubation (4° C., 60 min) and centrifugation (16,000 g, Rt, 5 min) supernatants were transferred to clean microcentrifuge tubes and dried in a vacuum centrifuge. The dried samples were tightly capped and stored in −80° C.
(§3) Analysis of the blood collected at 0, 1, 2, 3, 4, and 5 hours after compound ingestion on Day 1 and 0, 1, 2, 3, and 4 hours on Day 17 was performed.

[3] = BF2-curcuminoid complex stability (hydrolysis, autosampler); assay type: physicochemical
Procedure: Complex stability: The BF2-curcumin complexes slowly hydrolyze in water and water/methanol mixtures with a half-life of a few hours at 4° C. For applicability to an LC/MS assay on biological samples containing amounts of curcuminoids as low as 50 fmol/sample, and using an aqueous chromatographic mobile phase, it was necessary to use conditions that minimized hydrolysis. This breakdown was slowed but not averted by storing the samples at even lower temperatures (−80° C.) prior to analysis. The breakdown of the derivatives was averted by performing the reaction in glacial acetic acid and directly injecting the reaction mixture onto the LC column. Even after the injection of hundreds of samples there has been no noticeable deterioration of chromatographic reliability. Furthermore, by using a short 10 minute chromatographic gradient the hydrolysis of the complexes during chromatography was minimized. The stability of BF2-curcuminoid complex was tested to validate the assay for overnight analysis. Eight QC-mid samples were prepared, stored tightly capped to minimize contact with atmospheric moisture in the autosampler at 20° C., and each sample was analyzed every hour for up to seven hours. Except for BF2-TC, the curcuminoid complexes were stable throughout the 7 hour test period with no significant decline in peak intensity (FIG. 4).

[4] = In vivo temporal profile of plasma curcuminoids and metabolites in a human volunteer; conditions: Longvida four tablets daily for 17 consecutive days
Procedure: as §1, §2, §3

signal in mouse liver extract ([1]; after PHRAD 129): measurable peaks | signal in murine tumor extract [1]: strong signals
Compound: bisdemethoxycurcumin

signal in mouse brain extract ([1]; mouse, in vivo): measurable peaks
Compound: COc1cc(/C=C/C(=O)CC(=O)/C=C/c2ccc(O)c(OC)c2)ccc1O [Curcumin, curcumin]

hydrolysis half-life ([3]; water and water/methanol mixtures, 4° C.): a few hours
Compound: COc1cc(C=CC2=CC(C=Cc3ccc(O)c(OC)c3)=[O+][B-](F)(F)O2)ccc1O [BF2-C]

stability in autosampler (peak intensity) ([3]; glacial acetic acid reaction mixture, 20° C., 7 hour test period, QC-mid): slight loss of signal intensity
Compound: COc1cc(CCC2=CC(CCc3ccc(O)c(OC)c3)=[O+][B-](F)(F)O2)ccc1O [BF2-TC]

Further lines, the compound ahead of its results:

Compound: tetrahydrocurcumin
signal in murine tumor extract [1]: strong signals

Compound: O=C(C=Cc1ccc(O)cc1)CC(=O)C=Cc1ccc(O[C@@H]2O[C@H](C(=O)O)[C@@H](O)[C@H](O)[C@H]2O)cc1 [BDMCG, bisdemethoxycurcumin glucuronide]
signal in mouse brain extract ([1]; mouse, in vivo): not detected | signal in mouse liver extract ([1]; mouse, in vivo): not detected | signal in human plasma extract [2]: intense peaks

Compound: Demethoxycurcumin
signal in mouse brain extract ([1]; after PHRAD 129): measurable peaks | signal in mouse liver extract ([1]; after PHRAD 129): measurable peaks | signal in murine tumor extract [1]: strong signals

Compound: demethoxycurcumin glucuronide [DMCG]
signal in mouse brain extract ([1]; after PHRAD 129): not detected | signal in mouse liver extract ([1]; after PHRAD 129): not detected | signal in murine tumor extract [1]: not detected | signal in human plasma extract [4]: intense peaks

Reference: patent publication US20220178936A1, “A SENSITIVE LC-MS ASSAY TO MEASURE CURCUMINOIDS IN COMPLEX BIOLOGICAL SAMPLES” (THE REGENTS OF THE UNIVERSITY OF CALIFORNIA, priority 2019, published 2022)
